From patent US20250215030A1, “STAT MODULATORS AND USES THEREOF” (Recludix Pharma, Inc., priority 2022, published 2025)
Like-named read-outs stand apart in the source and are kept apart here.

Target: T1, pSTAT3 (pY705-STAT3) (Homo sapiens, UniProt P40763)
T1 construct: host or cells: cryopreserved PBMC
Test: MSD-pSTAT-PBMC Assay (pSTAT3, IL-6 stimulated)
Type: cell-based
Summary of the method: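 Phospho-STAT levels captured on anti-STAT3 or anti-STAT6 plates and detected with anti-pY705 or anti-pY641 antibodies (MSD read-out). Cryopreserved human PBMCs received compound for 3 h before a 10 min pulse of IL-6 (10 ng/mL, STAT3) or IL-4 (1 ng/mL, STAT6). IC50 fitted after unstimulated-background subtraction and DMSO normalization.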

[1] = PBMC, compound 3 hrs, then 10 ng/mL IL-6 for 10 min, MSD pY705-STAT3, read-out: pSTAT3

T1 sequence (P40763 whole entry): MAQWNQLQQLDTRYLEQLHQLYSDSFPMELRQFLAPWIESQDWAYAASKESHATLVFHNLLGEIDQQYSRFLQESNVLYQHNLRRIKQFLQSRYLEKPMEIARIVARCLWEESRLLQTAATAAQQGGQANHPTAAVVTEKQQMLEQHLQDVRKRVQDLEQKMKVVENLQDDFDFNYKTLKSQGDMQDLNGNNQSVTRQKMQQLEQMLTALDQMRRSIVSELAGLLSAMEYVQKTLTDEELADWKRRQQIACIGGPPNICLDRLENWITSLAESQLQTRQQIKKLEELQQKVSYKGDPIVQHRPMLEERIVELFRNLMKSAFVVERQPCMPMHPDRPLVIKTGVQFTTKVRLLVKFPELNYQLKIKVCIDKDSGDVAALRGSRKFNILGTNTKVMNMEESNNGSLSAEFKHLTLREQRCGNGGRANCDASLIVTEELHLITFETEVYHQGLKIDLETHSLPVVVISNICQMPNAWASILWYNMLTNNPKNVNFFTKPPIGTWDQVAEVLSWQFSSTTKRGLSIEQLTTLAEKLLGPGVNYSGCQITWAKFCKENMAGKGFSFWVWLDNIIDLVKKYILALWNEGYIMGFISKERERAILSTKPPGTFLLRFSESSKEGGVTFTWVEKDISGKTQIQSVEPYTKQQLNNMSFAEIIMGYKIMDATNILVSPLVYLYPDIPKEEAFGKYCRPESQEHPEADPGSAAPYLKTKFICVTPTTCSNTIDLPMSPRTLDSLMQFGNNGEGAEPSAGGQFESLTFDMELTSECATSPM

Structure (SMILES) | IC50 [1] | IC50
CCCOC(=O)[C@H](C)NP(=O)(Cc1ccc2sc(C(=O)N[C@H]3C[C@@H]4C[C@@H]4C[C@H]4CC[C@@H](C(=O)N5CC(C(=O)N6CCOCC6)C5)N4C3=O)cc2c1)Oc1ccccc1 (stereo partly drawn) [Compound 217, propyl (((2-(((3S,6S,7aS, 8aR,9aR)-3-(3-(morpholine-4-carbonyl)azetidine-1-carbonyl)-5-oxodecahydro-1H-cyclopropa[d]pyrrolo[1,2-a]azocin-6-yl)carbamoyl)benzo[b]thiophen-5-yl)methyl) (phenoxy)phosphoryl)-L-alaninate] | 0.1 to 1 µM | –
CC(C)(C)C(=O)SCCOP(=O)(OCCSC(=O)C(C)(C)C)C(F)(F)c1ccc2ccc(C(=O)N[C@H]3C[C@@H]4C[C@@H]4C[C@H]4CC[C@@H](C(=O)N5CC(n6ccnc6)C5)N4C3=O)cc2c1 [Compound 221, S,S′-(((((7-(((3S,6S,7aS, 8aR,9aR)-3-(3-(1H-imidazol-1-yl)azetidine-1-carbonyl)-5-oxodecahydro-1H-cyclopropa[d]pyrrolo[1,2-a]azocin-6-yl)carbamoyl)naphthalen-2-yl)difluoromethyl)phosphoryl)bis(oxy))bis(ethane-2,1-diyl)) bis(2,2-dimethyl-propanethioate)] | < 0.1 µM | –
CC(C)OC(=O)OCOP(=O)(Cc1ccc2sc(C(=O)N[C@H]3C[C@H]4C[C@H]4C[C@H]4CC[C@@H](C(=O)N[C@@H]5CCN(c6cccnc6)C5)N4C3=O)cc2c1)OCOC(=O)OC(C)C [Compound 226, diisopropyl (((((2-(((3S,6S,7aR, 8aS,9aR)-5-oxo-3-(((R)-1-(pyridin-3-yl)pyrrolidin-3-yl)carbamoyl)decahydro-1H-cyclopropa[d]pyrrolo[1,2-a]azocin-6-yl)carbamoyl)benzo[b]thiophen-5-yl)methyl)phosphoryl)bis(oxy))bis(methylene)) bis(carbonate)] | < 0.1 µM | –
CC(C)(C)C(=O)SCCOP(=O)(OCCSC(=O)C(C)(C)C)C(F)(F)c1ccc2sc(C(=O)N[C@H]3C[C@@H]4C[C@@H]4C[C@H]4CC[C@@H](C(=O)N5CC(F)(c6ccc(C#N)cc6)C5)N4C3=O)cc2c1 [Compound 227, S,S′-(((((2-(((3S,6S,7aS, 8aR,9aR)-3-(3-(4-cyanophenyl)-3-fluoroazetidine-1-carbonyl)-5-oxodecahydro-1H-cyclopropa[d]pyrrolo[1,2-a]azocin-6-yl)carbamoyl)benzo[b]thiophen-5-yl)difluoromethyl)phosphoryl)bis(oxy))bis(ethane-2,1-diyl)) bis(2,2-dimethyl-propanethioate)] | < 0.1 µM | –
CC(C)CC(=O)SCCOP(=O)(OCCSC(=O)CC(C)C)C(F)(F)c1ccc2sc(C(=O)N[C@H]3C[C@@H]4C[C@@H]4C[C@H]4CC[C@@H](C(=O)N5CC(c6ncccn6)C5)N4C3=O)cc2c1 [Compound 229, S,S′-((((difluoro(2-(((3S,6S,7aS, 8aR,9aR)-5-oxo-3-(3-(pyrimidin-2-yl)azetidine-1-carbonyl)decahydro-1H-cyclopropa[d]pyrrolo[1,2-a]azocin-6-yl)carbamoyl)benzo[b]thiophen-5-yl)methyl)phosphoryl)bis(oxy))bis(ethane-2,1-diyl)) bis(3-methylbutane thioate)] | < 0.1 µM | –
CCCOC(=O)[C@H](C)NP(=O)(Cc1ccc2sc(C(=O)N[C@H]3C[C@H]4C[C@H]4CC4CC[C@@H](C(=O)N[C@H]5CN(C(C)=O)C[C@@H]5F)N4C3=O)cc2c1)Oc1ccccc1 (stereo partly drawn) [Compound 245, propyl(((2-(((3S,6S,7aR,8aS,9aR)-3-(((3S,4S)-1-acetyl-4-fluoropyrrolidin-3-yl)carbamoyl)-5-oxodecahydro-1H-cyclopropa[d]pyrrolo[1,2-a]azocin-6-yl)carbamoyl)benzo[b]thiophen-5-yl)methyl)(phenoxy)phosphoryl)-L-alaninate] | – | 1 to 3 µM
CCCOC(=O)[C@H](C)NP(=O)(Oc1ccccc1)C(F)c1ccc2sc(C(=O)N[C@H]3C[C@H]4C[C@H]4C[C@H]4CC[C@@H](C(=O)N5CC(c6cnccc6F)C5)N4C3=O)cc2c1 (stereo partly drawn) [Compound 249, propyl ((fluoro(2-(((3S,6S,7aR,8aS,9aR)-3-(3-(4-fluoropyridin-3-yl)azetidine-1-carbonyl)-5-oxodecahydro-1H-cyclopropa[d]pyrrolo[1,2-a]azocin-6-yl)carbamoyl)benzo[b]thiophen-5-yl)methyl)(phenoxy)phosphoryl)-L-alaninate] | < 0.1 µM | –
CCCOC(=O)[C@H](C)NP(=O)(Cc1ccc2sc(C(=O)N[C@H]3C[C@H]4C[C@H]4C[C@H]4CC[C@@H](C(=O)N5CC(c6cnccc6F)C5)N4C3=O)cc2c1)Oc1ccccc1 (stereo partly drawn) [Compound 251, propyl(((2-(((3S,6S,7aR,8aS,9aR)-3-(3-(4-fluoropyridin-3-yl)azetidine-1-carbonyl)-5-oxodecahydro-1H-cyclopropa[d]pyrrolo[1,2-a]azocin-6-yl)carbamoyl)benzo[b]thiophen-5-yl)methyl)(phenoxy)phosphoryl)-L-alaninate] | – | < 0.1 µM
CCCOC(=O)[C@H](C)NP(=O)(Oc1ccccc1)C(F)c1ccc2sc(C(=O)N[C@H]3C[C@H]4C[C@H]4C[C@H]4CC[C@@H](C(=O)N[C@H]5CN(C(C)=O)C[C@@H]5F)N4C3=O)cc2c1 (stereo partly drawn) [Compound 255, propyl(((2-(((3S,6S,7aR,8aS,9aR)-3-(((3S,4S)-1-acetyl-4-fluoropyrrolidin-3-yl)carbamoyl)-5-oxodecahydro-1H-cyclopropa[d]pyrrolo[1,2-a]azocin-6-yl)carbamoyl)benzo[b]thiophen-5-yl)fluoromethyl)(phenoxy)phosphoryl)-L-alaninate] | – | 0.1 to 1 µM
CCCOC(=O)[C@H](C)NP(=O)(Oc1ccccc1)C(F)c1ccc2sc(C(=O)N[C@H]3C[C@@H]4C[C@@H]4C[C@H]4CC[C@@H](C(=O)N5CC(c6cnccc6F)C5)N4C3=O)cc2c1 (stereo partly drawn) [Compound 263, propyl ((fluoro(2-(((3S,6S,7aS,8aR,9aR)-3-(3-(4-fluoropyridin-3-yl)azetidine-1-carbonyl)-5-oxodecahydro-1H-cyclopropa[d]pyrrolo[1,2-a]azocin-6-yl)carbamoyl)benzo[b]thiophen-5-yl)methyl)(phenoxy)phosphoryl)-L-alaniante] | < 0.1 µM | –
CCCOC(=O)[C@H](C)NP(=O)(Cc1ccc2sc(C(=O)N[C@H]3C[C@@H]4C[C@@H]4C[C@H]4CC[C@@H](C(=O)N5CC(c6cnccc6F)C5)N4C3=O)cc2c1)Oc1ccccc1 (stereo partly drawn) [Compound 264, propyl (((2-(((3S,6S,7aS,8aR,9aR)-3-(3-(4-fluoropyridin-3-yl)azetidine-1-carbonyl)-5-oxodecahydro-1H-cyclopropa[d]pyrrolo[1,2-a]azocin-6-yl)carbamoyl)benzo[b]thiophen-5-yl)methyl)(phenoxy)phosphoryl)-L-alaninate] | < 0.1 µM | –
CCCOC(=O)[C@H](C)NP(=O)(Oc1ccccc1)C(F)c1ccc2sc(C(=O)N[C@H]3C[C@H]4C[C@H]4C[C@H]4CC[C@@H](C(=O)N[C@H]5CN(c6cccnc6)C[C@@H]5F)N4C3=O)cc2c1 (stereo partly drawn) [Compound 268, propyl ((fluoro(2-(((3S,6S,7aR,8aS,9aR)-3-(((3S,4S)-4-fluoro-1-(pyridin-3-yl)pyrrolidin-3-yl)carbamoyl)-5-oxodecahydro-1H-cyclopropa[d]pyrrolo[1,2-a]azocin-6-yl)carbamoyl)benzo[b]thiophen-5-yl)methyl)(phenoxy)phosphoryl)-L-alaninate] | < 0.1 µM | –
CCCOC(=O)[C@H](C)NP(=O)(Cc1ccc2sc(C(=O)N[C@H]3C[C@H]4C[C@H]4C[C@H]4CC[C@@H](C(=O)N[C@H]5CN(c6cccnc6)C[C@@H]5F)N4C3=O)cc2c1)Oc1ccccc1 (stereo partly drawn) [Compound 269, propyl(((2-(((3S,6S,7aR,8aS,9aR)-3-(((3S,4S)-4-fluoro-1-(pyridin-3-yl)pyrrolidin-3-yl)carbamoyl)-5-oxodecahydro-1H-cyclopropa[d]pyrrolo[1,2-a]azocin-6-yl)carbamoyl)benzo[b]thiophen-5-yl)methyl)(phenoxy)phosphoryl)-L-alaniante] | < 0.1 µM | –
Cc1ccncc1C1CN(C(=O)[C@@H]2CC[C@@H]3C[C@H]4C[C@H]4C[C@H](NC(=O)c4cc5cc(C(F)P(=O)(N[C@@H](C)C(=O)OC(C)C)Oc6ccccc6)ccc5s4)C(=O)N32)C1 (stereo partly drawn) [Compound 281, isopropyl ((fluoro(2-(((3S,6S,7aS,8aR,9aR)-3-(3-(4-methylpyridin-3-yl)azetidine-1-carbonyl)-5-oxodecahydro-1H-cyclopropa[d]pyrrolo[1,2-a]azocin-6-yl)carbamoyl)benzo[b]thiophen-5-yl)methyl)(phenoxy)phosphoryl)-L-alaninate] | – | < 0.1 µM
CCCOC(=O)[C@H](CC)NP(=O)(Oc1ccccc1)C(F)c1ccc2sc(C(=O)N[C@H]3C[C@@H]4C[C@@H]4C[C@H]4CC[C@@H](C(=O)N5CC(c6cnccc6C)C5)N4C3=O)cc2c1 (stereo partly drawn) [Compound 283, propyl(2S)-2-(((fluoro(2-(((3S,6S,7aS,8aR,9aR)-3-(3-(4-methylpyridin-3-yl)azetidine-1-carbonyl)-5-oxodecahydro-1H-cyclopropa[d]pyrrolo[1,2-a]azocin-6-yl)carbamoyl)benzo[b]thiophen-5-yl)methyl)(phenoxy)phosphoryl)amino)butanoate] | – | < 0.1 µM
CCCOC(=O)[C@H](COC)NP(=O)(Oc1ccccc1)C(F)c1ccc2sc(C(=O)N[C@H]3C[C@@H]4C[C@@H]4C[C@H]4CC[C@@H](C(=O)N5CC(c6cnccc6C)C5)N4C3=O)cc2c1 (stereo partly drawn) [Compound 284, propyl N-((fluoro(2-(((3S,6S,7aS,8aR,9aR)-3-(3-(4-methylpyridin-3-yl)azetidine-1-carbonyl)-5-oxodecahydro-1H-cyclopropa[d]pyrrolo[1,2-a]azocin-6-yl)carbamoyl)benzo[b]thiophen-5-yl)methyl)(phenoxy)phosphoryl)-O-methyl-L-serinate] | – | < 0.1 µM
